Consider two compounds from patent publication US20220323433A2, “CLINICAL REGIMEN FOR TREATING MYELODYSPLASTIC SYNDROME WITH PHOSPHATASE INHIBITOR” (H. Lee Moffitt Cancer Center and Research Institute, Inc., priority 2016, published 2022).

Each structure is given as a SMILES string. Like-named read-outs stand apart in the source and are kept apart here.

Data set [1] concerns male and female Sprague Dawley rats. Put plainly: GLP repeat-dose study in rats, daily IV slow bolus for 5 days. Conditions: for C0 / AUClast: 0.75 mg/kg/day.
The nature of data set [2]: Solubility and stability of LB-100 solution. Conditions: for stability: formulated in monosodium glutamate. It is filed as physicochemical. The source says:
LB-100 is a water soluble enantiomeric zwitterion provided as a sterile solution for intravenous administration.
Phosphate buffered saline (PBS) was used as the vehicle for LB-100 administration in preclinical efficacy studies and sodium bicarbonate 4.2% for injection was used as the vehicle for GLP toxicity studies.

Data set [3] concerns male and female beagle dogs. On the procedure:
In the GLP repeat dose dog study, LB-100 was administered by intravenous injection (slow bolus push) at dose levels of 0.15, 0.30, and 0.75 mg/kg daily for 5 consecutive days. […] The dosage level was reduced to 0.50 mg/kg/day for the 4th and 5th doses (study Days 3 and 4).
Multilead (I, II, III, aVR, aVL, aVF, and V2) ECGs were recorded for all animals prior to randomization (Day−8) and for all surviving animals on Day 4 (recorded approximately 2 to 4 hours following dose administration) and Day 27.
Blood pressure (systolic, diastolic, and mean arterial pressure) data were recorded for all animals once during the pretest period (Day−8) and for all surviving animals on study Day 4 (recorded approximately 2 to 4 hours following dose administration) and Day 27.

For data set [4], the system named is male Fischer rats. Briefly: Non-GLP dose ranging toxicology study in rats, daily IV infusion for 4 days. Conditions: for MTD: male Fischer rats, IV daily for 4 days. On the procedure: In a non-GLP dose ranging study in male Fischer rats, LB-100 was administered by daily intravenous (IV) infusion at 0.5, 0.75 and 1.5 mg/kg/day for 4 consecutive days.
Data set [5] relates to solid tumors. Conditions: human, in vivo.
Data set [6] has as its system beagle dogs. Briefly: Non-GLP dose ranging study in dogs, IV every 4 days x 4 doses. The class given is in vivo, dog. The text has this:
Single cell necrosis was observed throughout the gastrointestinal tract.

The subject of data set [7] is del(5q) MDS. Conditions: cited from earlier work; for median overall survival: long term follow up.
In data set [8] the test system is del(5q) clones. Conditions: del(5q) patients; cited from earlier work.
[9] abbreviates: MDS-003 multicenter Phase 2 trial.

Take `CN1CCN(C(=O)C2C(C(=O)O)[C@H]3CC[C@@H]2O3)CC1` (mixture of isomers) [LB-100, 3-{4methylpiperazine-carbonyl}-7-oxalobicyclo[2.2.1]heptane-2-carboxylic acid]: in data set [1] (females, study Day 4), the C0 is on record as 2347 ng/mL. In data set [1] (males, study Day 4), this compound had an AUClast of 596 ng·h/mL and a C0 of 1804 ng/mL. Further, in data set [1] (0.5, 0.75, 1.25 mg/kg/day males and 1.25 mg/kg/day females), the “heart findings (epicardium and subepicardium of the atrium)” value is recorded as “Minimal to mild subacute inflammation”. Besides, the kidney findings entry in data set [1] (0.75 and 1.25 mg/kg/day group males and females) is “adverse, test article-related nephrosis of the kidneys”. For the same compound, the “severely toxic dose in 10% of the animals (STD 10)” value in data set [1] (Sprague Dawley rats, IV slow bolus daily for 5 days) stood at 0.75 mg/kg/day. The “reversibility of effects on urinalysis parameters” value in data set [1] (all treatment groups) is recorded as “reversible”. In addition, in data set [1] (female, Sprague Dawley, rat, in vivo, iv), the AUClast is on record as 691 ng·h/mL. Further, the water solubility entry in data set [2] was “water soluble”. Moreover, the stability entry in data set [2] (pH 10.5, at refrigerated temperatures) was “at least 8 hours”. Also, in data set [2] (pH 10.5, at −20° C.), the stability entry was “stable for months”. For the same compound, the “racemization of separated enantiomers” value in data set [2] (in solution) was “racemize rapidly in solution”. Besides, the tolerability entry in data set [3] (0.15 mg/kg/day) is given as “well tolerated”. Besides, in data set [3] (0.75 mg/kg/day group, prior to fourth dose), the test article-related lethality is recorded as 2 of 10. Besides, the “Highest Non-Severely Toxic Dose (HNSTD)” value in data set [3] (beagle dogs, IV daily for 5 consecutive days) is given as 0.15 mg/kg. Moreover, in data set [3] (dog, in vivo), the ECGs result was “within normal limits”, the blood pressure entry is given as “unaffected”, the “hematology or coagulation parameters” value is “no residual effects” and the urinalysis parameters result is listed as “no test article-related changes”. For the same compound, in data set [4] (0.75 mg/kg/day), the nephrosis severity entry is recorded as “mild”. Moreover, the “no-observed-adverse-effect-level (NOAEL)” value in data set [4] (0.5, 0.75 and 1.5 mg/kg/day IV for 4 days) was “not established”. The heart toxicity entry in data set [4] (0.75 and 1.5 mg/kg/day groups) is listed as “epicardial hyperplasia with inflammation primarily on the epicardium of the atria”. The unscheduled deaths result in data set [4] (any of the treatment groups (0.5, 0.75, 1.5 mg/kg/day)) is reported as “no unscheduled deaths”. The compound further had an MTD in data set [4] of 0.75 mg/kg/day. Further, the MTD result in data set [4] (surface area equivalent) is “about 4.5 mg/m^2”. In addition, the dose-limiting toxicities result in data set [4] (rat, in vivo, iv) was “Kidney, heart, femoral bone, liver and urinary bladder toxicity”. In data set [5], the “cardiac or myelosuppressive toxicities” value is “no cardiac or myelosuppressive toxicities observed”, the dose limiting toxicities entry was “no dose limiting toxicities”, the “plasma concentrations of LB-100” value is listed as “greater than 1 μM” and the tolerability entry is on record as “well tolerated”. Further, the survival entry in data set [6] (0.1, 0.25, 0.5, 1.0 mg/kg) is given as “no LB-100-related effects on survival”. Besides, the “no observed-effect level (NOEL)” value in data set [6] (beagle dogs, IV every 4 days x 4 doses) amounted to 0.25 mg/kg. The signs of toxicity result in data set [6] (dog, in vivo, 1 mg/kg) is listed as “almost no signs of toxicity”.

With `Nc1cccc2c1CN(C1CCC(=O)NC1=O)C2=O` (stereo not shown) [lenalidomide], the “patients achieving a complete response (CR)” value in data set [7] (MDS-003, cytogenetic response) is listed as 45%. The “patients with at least a partial cytogenetic response” value in data set [7] (MDS-003) is 73%. Besides, the “median TI duration” value in data set [7] (setting [9]) is given as 2.2 years. For the same compound, in data set [7] (setting [9]), the “patients achieved transfusion independence (TI)” value is recorded as 67%. For the same compound, the “patients who develop resistance” value in data set [7] (after 2-3 years of treatment) is “approximately 50%”. In addition, the median overall survival in data set [7] (cytogenetic non-responders) is recorded as 3.1 years; in data set [7] (cytogenetic responders), 4.9 years; in data set [7] (non-responders (TI)), 2 years; in data set [7] (patients who reached TI), 4.3 years. For the same compound, the “median duration of TI” value in data set [7] (patients with PP2Acα suppression from baseline, not reached) was at least 1507 days; in data set [7] (patients without PP2Acα suppression (P=0.006, log rank)) it was 679 days. Moreover, the “median duration of responses” value in data set [7] (patients with del5q MDS) is recorded as 2.5 years. The “apoptosis and cell cycle arrest” value in data set [8] was “induces apoptosis and cell cycle arrest”.
